pIC50: −log10 of the molar value.
Tests used:
[1] = system: adenocarcinomic human alveolar basal epithelial cell line A549; assay: High content analysis of anticancer agents by cell image analysis (Experimental Example 8); assay type: cell-based; details: for pIC50: Homo sapiens; for average cell number per sphere / average dead cell number in sphere / average sphere number per 20 mm^2 / projected area: 0.03 (w/v)% low-molecular agar medium, 7 days with agent;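 as to projected area: Projected area in square micrometres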
Procedure: Adenocarcinomic human alveolar basal epithelial cell line A549 (manufactured by DS PHARMA BIOMEDICAL CO., LTD.) was suspended in the above-mentioned medium composition containing low-molecular agar at 11,000 cells/mL. […] The plate was stood in a CO2 incubator (37° C., 5% CO2) overnight. The next day, paclitaxel (manufactured by Wako Pure Chemical Industries, Ltd.) and trametinib (manufactured by SANTA CRUZ) were further added by 10 μl per 1 well at a final concentration of 0.001 μM, 0.01 μM and 0.1 μM, respectively, mitomycin C (manufactured by Wako Pure Chemical Industries, Ltd.) at a final concentration of 0.005 μM, 0.05 μM and 0.5 μM, and MK2206 (manufactured by SANTA CRUZ) at a final concentration of 0.001 μM, 0.01 μM, 0.1 μM and 1 μM. Successively, the plate was further cultured in a standing state in a CO2 incubator (37° C., 5% CO2) for 7 days.
Successively, a solution of 20 μg/mL Propidium Iodide (manufactured by BIOMOL) in DMEM (phenol red, L-glutamine free) (manufactured by Wako Pure Chemical Industries, Ltd.) was prepared and added at 10 μL per 1 well, and the culture medium was suspended. The plate was centrifuged at 1,500 rpm for 1 min, and high content analysis was performed by cell image analysis using a cell imaging apparatus (“ArrayScan VTI HCS Reader”, manufactured by Thermo Fisher Scientific). At that time, observation was performed with 20 fields of view per well using a ×10 objective lens, cell outline and cell nucleus were detected from Hoechst33342 fluorescence image, and dead cells were detected from propidium iodide fluorescence image. In addition, 50% inhibitory concentration (nM) of each anticancer agent by high content analysis was calculated from the number of spheres constituted of not less than 5 cells. In this case, the value without addition of the anticancer agent was taken as 0% sphere formation inhibitory rate.

[2] = system: adenocarcinomic human alveolar basal epithelial cell line A549; assay: CellTiter-Glo cell survival assay of anticancer agents (Experimental Example 8); assay type: cell-based; details: for pIC50: Homo sapiens, A549, cell survival assay by luminescence, read-out: 50% inhibitory concentration
Procedure: Adenocarcinomic human alveolar basal epithelial cell line A549 (manufactured by DS PHARMA BIOMEDICAL CO., LTD.) was suspended in the above-mentioned medium composition containing low-molecular agar at 11,000 cells/mL. The above-mentioned cell suspension was dispensed to the wells of a 96 well flat bottom ultra-low attachment surface microplate (manufactured by Corning Incorporated, #3474) at 90 μL per 1 well. The plate was stood in a CO2 incubator (37° C., 5% CO2) overnight. […] Successively, the plate was further cultured in a standing state in a CO2 incubator (37° C., 5% CO2) for 7 days. As a negative control, a medium composition containing 10 (v/v) % FBS alone in DMEM (manufactured by Wako Pure Chemical Industries, Ltd.) was prepared. […] A549 cells were also suspended in each of the negative control and comparison control medium compositions, the negative control was dispensed to a 96 well flat bottom attachment surface microplate (manufactured by Corning Incorporated, #3585) and the comparison control was dispensed to a 96 well flat bottom ultra-low attachment surface microplate (manufactured by Corning Incorporated, #3474). […] CellTiter-Glo Luminescent Cell Viability Assay (manufactured by Promega) (100 μL) was added to the low-molecular agar-containing culture medium and each cell culture medium of the negative control and comparison control, the mixture was stood for 10 min at room temperature, and the amount of luminescence was measured by a microplate reader (“FlexStation 3”, manufactured by Molecular Devices) and according to the protocol recommended by Promega. The amount of luminescence of the medium alone was subtracted, whereby the number of viable cells was measured.

[3] = A549, high content analysis by cell image analysis, number of spheres of not less than 5 cells, low-molecular agar-containing medium, read-out: 50% inhibitory concentration
[4] = comparison control (0.015 (w/v)% deacylated gellan gum medium)
[5] = low-molecular agar-containing medium
[6] = negative control (DMEM, 10% FBS, attachment surface plate)
[7] = agent 0.001 μM, comparison control (0.015 (w/v)% deacylated gellan gum medium)
[8] = agent 0.001 μM, low-molecular agar-containing medium
[9] = agent 0.001 μM, negative control (DMEM, 10% FBS, attachment surface plate)
[10] = agent 0.01 μM, comparison control (0.015 (w/v)% deacylated gellan gum medium)
[11] = agent 0.01 μM, low-molecular agar-containing medium
[12] = agent 0.01 μM, negative control (DMEM, 10% FBS, attachment surface plate)
[13] = agent 0.1 μM, comparison control (0.015 (w/v)% deacylated gellan gum medium)
[14] = agent 0.1 μM, low-molecular agar-containing medium
[15] = agent 0.1 μM, negative control (DMEM, 10% FBS, attachment surface plate)

SMILES: CC(=O)Nc1cccc(-n2c(=O)n(C3CC3)c(=O)c3c(Nc4ccc(I)cc4F)n(C)c(=O)c(C)c32)c1 [trametinib]
- pIC50 [1, 3]: 8.29
- average cell number per sphere ([1]; agent 0.001 μM): 4.272
- average dead cell number in sphere ([1]; agent 0.001 μM): 0.073
- average sphere number per 20 mm^2 ([1]; agent 0.001 μM): 218.7
- projected area ([1]; agent 0.001 μM): 1200 μm^2
- average cell number per sphere ([1]; agent 0.01 μM): 2.906
- average dead cell number in sphere ([1]; agent 0.01 μM): 0.09
- average sphere number per 20 mm^2 ([1]; agent 0.01 μM): 173.9
- projected area ([1]; agent 0.01 μM): 976.6 μm^2
- average cell number per sphere ([1]; agent 0.1 μM): 1.867
- average dead cell number in sphere ([1]; agent 0.1 μM): 0.178
- average sphere number per 20 mm^2 ([1]; agent 0.1 μM): 132.8
- projected area ([1]; agent 0.1 μM): 618.3 μm^2
- pIC50 [2, 4]: 7.94
- pIC50 [2, 5]: 8.09
- pIC50 [2, 6]: 7.20
- relative cell number (no anticancer agent = 100) [2, 7]: 93.3
- relative cell number (no anticancer agent = 100) [2, 8]: 92.2
- relative cell number (no anticancer agent = 100) [2, 9]: 101.2
- relative cell number (no anticancer agent = 100) [2, 10]: 52.5
- relative cell number (no anticancer agent = 100) [2, 11]: 45.8
- relative cell number (no anticancer agent = 100) [2, 12]: 99
- relative cell number (no anticancer agent = 100) [2, 13]: 18.1
- relative cell number (no anticancer agent = 100) [2, 14]: 18.2
- relative cell number (no anticancer agent = 100) [2, 15]: 37.4

SMILES: CO[C@@]12[C@H](COC(N)=O)C3=C(C(=O)C(C)=C(N)C3=O)N1C[C@@H]1N[C@@H]12 [mitomycin C]
- pIC50 ([1]; A549, read-out: 50% inhibitory concentration): 8.19
- average cell number per sphere ([1]; agent 0.005 μM): 3.72
- average dead cell number in sphere ([1]; agent 0.005 μM): 0.151
- average sphere number per 20 mm^2 ([1]; agent 0.005 μM): 265.2
- projected area ([1]; agent 0.005 μM): 1139 μm^2
- average cell number per sphere ([1]; agent 0.05 μM): 2.187
- average dead cell number in sphere ([1]; agent 0.05 μM): 0.33
- average sphere number per 20 mm^2 ([1]; agent 0.05 μM): 190.6
- projected area ([1]; agent 0.05 μM): 810.7 μm^2
- average cell number per sphere ([1]; agent 0.5 μM): 1.447
- average dead cell number in sphere ([1]; agent 0.5 μM): 0.606
- average sphere number per 20 mm^2 ([1]; agent 0.5 μM): 113.3
- projected area ([1]; agent 0.5 μM): 460.8 μm^2
- pIC50 [2, 4]: 7.92
- pIC50 [2, 5]: 8.00
- pIC50 [2, 6]: 7.15
- relative cell number (no anticancer agent = 100) ([2]; agent 0.005 μM, comparison control (0.015 (w/v)% deacylated gellan gum medium)): 62.8
- relative cell number (no anticancer agent = 100) ([2]; agent 0.005 μM, low-molecular agar-containing medium): 59.5
- relative cell number (no anticancer agent = 100) ([2]; agent 0.005 μM, negative control (DMEM, 10% FBS, attachment surface plate)): 94
- relative cell number (no anticancer agent = 100) ([2]; agent 0.05 μM, comparison control (0.015 (w/v)% deacylated gellan gum medium)): 29.5
- relative cell number (no anticancer agent = 100) ([2]; agent 0.05 μM, low-molecular agar-containing medium): 27.8
- relative cell number (no anticancer agent = 100) ([2]; agent 0.05 μM, negative control (DMEM, 10% FBS, attachment surface plate)): 55.9
- relative cell number (no anticancer agent = 100) ([2]; agent 0.5 μM, comparison control (0.015 (w/v)% deacylated gellan gum medium)): 8.6
- relative cell number (no anticancer agent = 100) ([2]; agent 0.5 μM, low-molecular agar-containing medium): 8.1
- relative cell number (no anticancer agent = 100) ([2]; agent 0.5 μM, negative control (DMEM, 10% FBS, attachment surface plate)): 12.3

SMILES: NC1(c2ccc(-c3nc4ccn5c(=O)[nH]nc5c4cc3-c3ccccc3)cc2)CCC1 [MK2206]
- pIC50 [1, 3]: 6.68
- average cell number per sphere ([1]; agent 0.001 μM): 5.044
- average dead cell number in sphere ([1]; agent 0.001 μM): 0.104
- average sphere number per 20 mm^2 ([1]; agent 0.001 μM): 230.6
- projected area ([1]; agent 0.001 μM): 1361 μm^2
- average cell number per sphere ([1]; agent 0.01 μM): 4.774
- average dead cell number in sphere ([1]; agent 0.01 μM): 0.074
- average sphere number per 20 mm^2 ([1]; agent 0.01 μM): 213.7
- projected area ([1]; agent 0.01 μM): 1343 μm^2
- average cell number per sphere ([1]; agent 0.1 μM): 4.323
- average dead cell number in sphere ([1]; agent 0.1 μM): 0.076
- average sphere number per 20 mm^2 ([1]; agent 0.1 μM): 206.1
- projected area ([1]; agent 0.1 μM): 1199 μm^2
- average cell number per sphere ([1]; agent 1 μM): 3.423
- average dead cell number in sphere ([1]; agent 1 μM): 0.332
- average sphere number per 20 mm^2 ([1]; agent 1 μM): 142.3
- projected area ([1]; agent 1 μM): 931.2 μm^2
- pIC50 [2, 4]: 6.68
- pIC50 [2, 5]: 6.60
- pIC50 [2, 6]: ≤ 6.00
- relative cell number (no anticancer agent = 100) [2, 7]: 95.8
- relative cell number (no anticancer agent = 100) [2, 8]: 100.1
- relative cell number (no anticancer agent = 100) [2, 9]: 100.2
- relative cell number (no anticancer agent = 100) [2, 10]: 89.1
- relative cell number (no anticancer agent = 100) [2, 11]: 93.9
- relative cell number (no anticancer agent = 100) [2, 12]: 101.3
- relative cell number (no anticancer agent = 100) [2, 13]: 61.8
- relative cell number (no anticancer agent = 100) [2, 14]: 66.5
- relative cell number (no anticancer agent = 100) [2, 15]: 97.6
- relative cell number (no anticancer agent = 100) ([2]; agent 1 μM, comparison control (0.015 (w/v)% deacylated gellan gum medium)): 25.2
- relative cell number (no anticancer agent = 100) ([2]; agent 1 μM, low-molecular agar-containing medium): 25.7
- relative cell number (no anticancer agent = 100) ([2]; agent 1 μM, negative control (DMEM, 10% FBS, attachment surface plate)): 95.7

Source: patent publication US10914725B2, “Culture medium additive, culture medium composition, and method for culturing cells or tissue using same” (NISSAN CHEMICAL INDUSTRIES, LTD., priority 2015, dated 2021)
